The record followed here is patent US6765022B2, “Cyclohexylamine derivatives as subtype selective nmda receptor antagonists” (Warner-Lambert Company, priority 2000, dated 2004).

Counter-ions that a name gives are not always drawn.

Data set [1] deals with T1, [3H]ifenprodil binding, adult rat forebrain membranes (NMDA receptor) (Rattus norvegicus, UniProt P35439+Q00960).
T1 construct: membrane fraction was prepared from frozen adult rat forebrains; tissue Zivic-Miller Laboratories, Inc; host or cells: adult rat forebrain, buffy coat membrane fraction
Description: [3H]Ifenprodil binding assay. The conditions noted are these: 4 nM [3H]-ifenprodil, 2 hours at room temperature, pH 7.4. On the procedure:
All buffers and reagents used in assay incubations or to dissolve drugs were prepared using water purified through a Milli-Q reverse osmosis system (Millipore Corp, Bedford, Mass.) and treated with UV emissions. Prior to use in the assays, buffers were further filtered through a sterile Corning filtration unit (Corning Glass Works, Corning, N.Y.) containing a 0.2-μm filter. Buffer used to rinse the membranes on the assay filters was prepared with purified water, but was not refiltered and was stored no longer than 5 days. Stock solutions of the drugs (usually 10 mM) were dissolved in 20 mM HEPES-KOH buffer pH 7.4 (assay buffer) with the addition of 1 to 5 μL of glacial AcOH, if needed, to keep them in solution. For eliprodil the stock solution was buffer with the addition of 10% DMSO. All subsequent dilutions from stock were made in buffer.
An extensively washed buffy coat membrane fraction was prepared from frozen adult rat forebrains (Zivic-Miller Laboratories, Inc, Zelienople, Pa.) as described previously (Coughenour L. L.; Cordon, J. J., J. Pharmacol. Exp. Ther., 1997;280:584-592) and stored at −80° C. On the day of the assay, pellets were resuspended in 35 mL of assay buffer at pH 7.4 using a Polytron setting 6. After incubation at 37° C. for 30 minutes in a shaking water bath, the homogenate was centrifuged 40,000×g for 10 minutes at 4° C. The pellets were resuspended in fresh buffer and centrifuged 3 more times before final suspension for use in the assay.
[^3H]Ifenprodil Binding. […] The filter mat was supported on a cold (−20° C.) teflon support, and filters from individual wells were separated and placed in Mini Poly-Q vials (Beckman Instruments Inc, Fullerton, Calif.) and filled with 4 mL of scintillation cocktail (Beckman Ready Protein^+). Radioactivity retained on the filter was determined by liquid scintillation spectrophotometry. […]
Data Analysis. Binding curves were statistically analyzed for a best one- or two-site competition fit using GraphPad Prism software (GraphPad Software Inc, San Diego, Calif.). […]

Data set [2] deals with T2, NR1A/NR2B (Rattus norvegicus, UniProt P35439+Q00960).
T2 construct: expressed in transfected cells; host or cells: Xenopus laevis oocytes injected with cRNA
Briefly: Electrophysiological assay at NMDA receptor subunits expressed in Xenopus oocytes (two-electrode voltage clamp). It counts as cell-based. The settings on record: cloned rat NR1A/NR2B in Xenopus oocytes; currents activated by glutamate (100 μM) and glycine (1-100 μM); read-out: NR1A/NR2B Oocyte IC50. The source says: Preparation of RNA. cDNA clones encoding the NR1A, NR2A, NR2B, and NR2C rat NMDA receptor subtypes were used. (See Moriyoshi et al., Nature, (Lond.), 1991;354:31-37); Kutsuwada et al., Nature (Lond.), 1992;358:36-41; Monyer et al., Science (Washington, D.C.), 1992;256:1217-1221; Ikeda et al., FEBS Lett., 1992;313:34-38; Ishii et al., J. Biol. Chem., 1993;268:2836-2843 for details of these clones or their mouse homologs.) The clones were transformed into appropriate host bacteria, and plasmid preparations were made with conventional DNA purification techniques. A sample of each clone was linearized by restriction enzyme digestion […] was synthesized with T3 RNA polymerase. The cRNA was diluted to 400 ng/μL and stored in 1-μL aliquots at −80° C. until injection.
The Xenopus Oocyte Expression System. […]
Electrical recordings were made using a conventional two-electrode voltage clamp (Dagan TEV-200) over periods ranging between 3 to 21 days following injection (Woodward et al., Mol. Pharmacol., 1992;41:89-103). […] Inhibitory potency of the novel antagonists was assessed on responses elicited by fixed concentrations of glutamate and glycine, by measuring reductions in current induced by progressively increasing concentrations of antagonist. […]

T1 sequence (Q00960 27-1482, other chains not shown): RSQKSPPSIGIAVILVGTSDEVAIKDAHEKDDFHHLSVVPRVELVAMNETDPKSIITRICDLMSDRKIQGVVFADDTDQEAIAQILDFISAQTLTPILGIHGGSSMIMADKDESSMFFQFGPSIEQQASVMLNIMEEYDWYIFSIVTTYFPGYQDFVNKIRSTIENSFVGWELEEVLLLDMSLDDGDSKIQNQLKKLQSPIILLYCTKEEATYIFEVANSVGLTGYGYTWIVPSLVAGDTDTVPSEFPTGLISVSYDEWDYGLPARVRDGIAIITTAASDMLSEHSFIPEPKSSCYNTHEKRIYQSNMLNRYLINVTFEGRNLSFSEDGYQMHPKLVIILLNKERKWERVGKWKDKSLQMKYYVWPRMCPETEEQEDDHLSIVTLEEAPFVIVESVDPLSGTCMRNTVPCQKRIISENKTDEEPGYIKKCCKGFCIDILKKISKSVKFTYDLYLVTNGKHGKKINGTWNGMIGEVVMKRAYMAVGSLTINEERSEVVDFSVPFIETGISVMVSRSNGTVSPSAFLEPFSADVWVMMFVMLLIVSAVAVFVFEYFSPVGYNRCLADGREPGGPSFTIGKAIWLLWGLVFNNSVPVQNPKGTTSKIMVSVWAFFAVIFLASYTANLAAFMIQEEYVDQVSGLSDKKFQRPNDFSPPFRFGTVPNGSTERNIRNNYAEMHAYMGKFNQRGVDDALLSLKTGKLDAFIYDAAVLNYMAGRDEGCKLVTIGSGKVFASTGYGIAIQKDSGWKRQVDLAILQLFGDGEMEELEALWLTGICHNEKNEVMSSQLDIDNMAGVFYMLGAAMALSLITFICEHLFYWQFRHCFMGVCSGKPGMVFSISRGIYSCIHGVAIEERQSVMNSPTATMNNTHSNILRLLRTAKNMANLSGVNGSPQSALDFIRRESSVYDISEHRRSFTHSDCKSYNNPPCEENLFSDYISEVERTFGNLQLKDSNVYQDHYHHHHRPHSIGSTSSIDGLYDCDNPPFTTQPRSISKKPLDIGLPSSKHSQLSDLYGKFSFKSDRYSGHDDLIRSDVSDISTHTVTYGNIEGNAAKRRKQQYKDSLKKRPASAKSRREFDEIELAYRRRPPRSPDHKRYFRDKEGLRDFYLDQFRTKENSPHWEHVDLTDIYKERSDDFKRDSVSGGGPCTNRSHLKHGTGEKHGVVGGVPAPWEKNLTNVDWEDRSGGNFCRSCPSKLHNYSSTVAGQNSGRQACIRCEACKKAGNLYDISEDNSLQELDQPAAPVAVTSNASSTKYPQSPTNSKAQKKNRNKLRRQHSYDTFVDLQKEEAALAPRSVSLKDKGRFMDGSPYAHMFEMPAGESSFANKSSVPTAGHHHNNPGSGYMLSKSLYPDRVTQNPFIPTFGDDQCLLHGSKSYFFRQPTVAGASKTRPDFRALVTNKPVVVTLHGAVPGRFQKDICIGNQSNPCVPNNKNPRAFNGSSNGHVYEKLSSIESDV
T2 sequence (Q00960 27-1482, other chains not shown): as above

For the molecule `Oc1ccc(CCCN[C@H]2CC[C@H](c3ccccc3)CC2)cc1` [Example 1b, trans4-[3-(4-Phenylcyclohexylamino)propyl]phenol], the melting point was in the range of 211 to 214 °C. In data set [1], this molecule gave an IC50 of 84 nM.
`Oc1ccc(CCN[C@H]2CC[C@H](c3ccccc3)CC2)cc1` (as salt: HCl) [Example 5, trans-4-[2-(4-Phenylcyclohexylamino)ethyl]phenol] registered a melting point of 238 to 241 °C.
Consider `C[C@H](N[C@H]1CC[C@@H](c2ccccc2)CC1)[C@@H](O)c1ccc(O)cc1` [Example 2b, cis-4-[(1S,2S)-1-Hydroxy-2-(4-phenylcyclohexylamino)propyl]phenol], for which the IC50 came out at 45 nM in data set [1] and 150 nM in data set [2].
The molecule `CN(CCCc1ccc(O)cc1)[C@H]1CC[C@H](c2ccccc2)CC1` (as salt: HCl) [Example 4, trans-4-{3-[Methyl-(4-phenylcyclohexyl)amino]propyl}phenol] gave a melting point of 249 to 255 °C.
`CN(CCc1ccc(O)cc1)[C@H]1CC[C@H](c2ccccc2)CC1` (as salt: HCl) [Example 6, trans 4-{2-[Methyl(4-phenylcyclohexyl)amino]ethyl}phenol] showed a melting point of 97 to 105 °C.
Take `C[C@H](N[C@H]1CC[C@H](c2ccccc2)CC1)[C@@H](O)c1ccc(O)cc1` [Example 2a, trans 4-[(1S,2S)-1-Hydroxy-2-(4-phenylcyclohexylamino)propyl]phenol]: the IC50 in data set [1] amounted to 1300 nM.

What is called melting point is the temperature, or range, at which the solid turns liquid.
